Data from patent US20260327204A1, “DEGRADERS OF CYCLIN-DEPENDENT KINASE 12/13, COMPOSITIONS, AND USES THEREOF” (ZHEJIANG UNIVERSITY, priority 2023, published 2026).

Experiments:
Type in all cases: cell-based
Design in all cases: degradation of CDK12/13 protein in leukemia cells KASUMI-1, MV4-11, and Jurkat; endogenous in cells
CDK12 [1] = target: T1, CDK12 (Homo sapiens, UniProt Q9NYV4); test: Western blot degradation of CDK12 (Example 3); conditions: DC50 classes; cell line not given; read-out: CDK12 degradation Activity
T1 sequence (Q9NYV4 whole entry): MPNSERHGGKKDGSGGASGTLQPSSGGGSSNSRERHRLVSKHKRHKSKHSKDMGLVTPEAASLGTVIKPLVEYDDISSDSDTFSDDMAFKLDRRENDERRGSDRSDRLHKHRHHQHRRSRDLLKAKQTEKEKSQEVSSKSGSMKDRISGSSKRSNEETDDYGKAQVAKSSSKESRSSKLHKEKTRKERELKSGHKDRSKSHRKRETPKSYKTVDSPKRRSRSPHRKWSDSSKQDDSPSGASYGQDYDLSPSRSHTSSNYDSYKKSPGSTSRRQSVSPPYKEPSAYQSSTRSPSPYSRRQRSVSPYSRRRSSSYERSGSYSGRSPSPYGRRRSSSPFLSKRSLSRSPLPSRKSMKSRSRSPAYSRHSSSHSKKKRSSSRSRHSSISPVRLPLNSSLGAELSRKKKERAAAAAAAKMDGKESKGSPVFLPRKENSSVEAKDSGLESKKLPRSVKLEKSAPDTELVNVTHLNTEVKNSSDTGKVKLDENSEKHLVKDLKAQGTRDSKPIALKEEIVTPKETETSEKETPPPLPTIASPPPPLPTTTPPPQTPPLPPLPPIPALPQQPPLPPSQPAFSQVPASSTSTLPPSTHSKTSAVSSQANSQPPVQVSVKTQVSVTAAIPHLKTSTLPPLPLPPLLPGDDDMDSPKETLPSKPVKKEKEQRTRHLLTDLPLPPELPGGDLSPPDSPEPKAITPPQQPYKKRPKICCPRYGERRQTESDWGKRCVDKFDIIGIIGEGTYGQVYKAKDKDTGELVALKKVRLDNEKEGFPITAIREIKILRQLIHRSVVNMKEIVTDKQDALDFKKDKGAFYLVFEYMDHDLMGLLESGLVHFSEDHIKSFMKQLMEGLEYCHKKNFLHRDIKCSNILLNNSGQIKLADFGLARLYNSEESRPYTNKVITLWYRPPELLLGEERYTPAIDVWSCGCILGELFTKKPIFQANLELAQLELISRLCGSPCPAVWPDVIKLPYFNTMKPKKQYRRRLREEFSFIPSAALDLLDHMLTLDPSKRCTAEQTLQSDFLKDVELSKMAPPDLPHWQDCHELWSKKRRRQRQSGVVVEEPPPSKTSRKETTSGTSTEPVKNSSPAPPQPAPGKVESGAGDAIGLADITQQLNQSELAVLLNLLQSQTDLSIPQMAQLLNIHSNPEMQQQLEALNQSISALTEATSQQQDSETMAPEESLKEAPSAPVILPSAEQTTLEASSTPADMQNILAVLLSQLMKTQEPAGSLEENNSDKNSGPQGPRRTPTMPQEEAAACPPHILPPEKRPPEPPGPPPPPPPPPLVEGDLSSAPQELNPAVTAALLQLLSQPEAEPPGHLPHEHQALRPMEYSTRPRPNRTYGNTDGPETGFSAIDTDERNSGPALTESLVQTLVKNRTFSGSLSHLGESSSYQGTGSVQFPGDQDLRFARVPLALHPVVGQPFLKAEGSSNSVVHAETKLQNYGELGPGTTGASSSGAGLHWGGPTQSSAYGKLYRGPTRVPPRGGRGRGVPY
T1 sequence (O75909 whole entry partner): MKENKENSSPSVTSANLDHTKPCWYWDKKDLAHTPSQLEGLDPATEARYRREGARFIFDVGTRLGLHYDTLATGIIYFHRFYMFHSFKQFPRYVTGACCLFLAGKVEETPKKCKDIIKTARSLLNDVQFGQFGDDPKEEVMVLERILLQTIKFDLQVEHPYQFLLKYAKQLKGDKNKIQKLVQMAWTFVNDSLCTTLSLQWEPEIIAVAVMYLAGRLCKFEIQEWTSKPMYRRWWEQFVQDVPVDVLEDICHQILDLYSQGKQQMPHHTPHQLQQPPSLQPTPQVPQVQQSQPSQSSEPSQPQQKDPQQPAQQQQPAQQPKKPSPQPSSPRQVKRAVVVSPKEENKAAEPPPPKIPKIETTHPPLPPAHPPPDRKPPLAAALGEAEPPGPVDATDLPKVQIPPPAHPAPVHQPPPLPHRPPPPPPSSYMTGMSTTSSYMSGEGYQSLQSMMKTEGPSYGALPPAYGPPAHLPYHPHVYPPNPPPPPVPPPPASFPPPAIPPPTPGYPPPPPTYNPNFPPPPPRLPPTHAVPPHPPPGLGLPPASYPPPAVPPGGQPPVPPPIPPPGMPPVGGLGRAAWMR

CDK13 [2] = target: T2, CDK13 (Homo sapiens, UniProt Q14004); test: Western blot degradation of CDK13 (Example 3); conditions: DC50 classes; cell line not given; read-out: CDK13 degradation Activity
T2 sequence (Q14004 whole entry): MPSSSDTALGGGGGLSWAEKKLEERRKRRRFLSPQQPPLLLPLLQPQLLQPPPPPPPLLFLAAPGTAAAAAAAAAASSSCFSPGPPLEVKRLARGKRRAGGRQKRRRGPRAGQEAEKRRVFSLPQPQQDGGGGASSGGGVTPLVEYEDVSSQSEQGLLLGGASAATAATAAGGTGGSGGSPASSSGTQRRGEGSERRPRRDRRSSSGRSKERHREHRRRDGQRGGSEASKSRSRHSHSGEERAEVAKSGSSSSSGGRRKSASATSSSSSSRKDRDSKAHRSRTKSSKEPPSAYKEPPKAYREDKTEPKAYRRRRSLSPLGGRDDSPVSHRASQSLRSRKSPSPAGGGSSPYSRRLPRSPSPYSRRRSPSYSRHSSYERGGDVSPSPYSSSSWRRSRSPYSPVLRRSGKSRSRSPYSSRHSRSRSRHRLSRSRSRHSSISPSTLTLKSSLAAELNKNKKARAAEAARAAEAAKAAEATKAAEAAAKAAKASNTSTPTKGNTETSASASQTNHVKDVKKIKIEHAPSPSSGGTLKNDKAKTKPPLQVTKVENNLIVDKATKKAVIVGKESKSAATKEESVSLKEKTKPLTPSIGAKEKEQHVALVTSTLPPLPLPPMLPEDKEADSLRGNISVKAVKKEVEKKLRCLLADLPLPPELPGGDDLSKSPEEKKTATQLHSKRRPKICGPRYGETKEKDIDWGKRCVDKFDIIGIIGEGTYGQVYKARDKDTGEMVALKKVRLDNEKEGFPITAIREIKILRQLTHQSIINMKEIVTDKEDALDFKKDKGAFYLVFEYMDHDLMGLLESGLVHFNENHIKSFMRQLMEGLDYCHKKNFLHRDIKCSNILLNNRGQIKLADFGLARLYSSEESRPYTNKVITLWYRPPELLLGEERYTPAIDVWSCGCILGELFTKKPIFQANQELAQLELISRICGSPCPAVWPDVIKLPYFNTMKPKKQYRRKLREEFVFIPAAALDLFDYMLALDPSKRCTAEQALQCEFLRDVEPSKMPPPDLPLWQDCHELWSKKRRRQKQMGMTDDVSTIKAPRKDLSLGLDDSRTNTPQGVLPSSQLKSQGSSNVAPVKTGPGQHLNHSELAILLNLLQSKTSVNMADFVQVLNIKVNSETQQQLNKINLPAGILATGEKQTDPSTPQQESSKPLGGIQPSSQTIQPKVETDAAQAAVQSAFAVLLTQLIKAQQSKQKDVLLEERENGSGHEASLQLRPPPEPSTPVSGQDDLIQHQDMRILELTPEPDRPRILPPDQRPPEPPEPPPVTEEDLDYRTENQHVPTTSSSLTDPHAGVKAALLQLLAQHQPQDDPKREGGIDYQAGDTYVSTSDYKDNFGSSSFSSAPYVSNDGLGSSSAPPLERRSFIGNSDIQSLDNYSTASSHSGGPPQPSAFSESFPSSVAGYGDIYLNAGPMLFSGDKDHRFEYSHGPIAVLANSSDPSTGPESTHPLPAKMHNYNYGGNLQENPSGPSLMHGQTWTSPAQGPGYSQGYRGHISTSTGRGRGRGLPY
T2 sequence (O75909 whole entry partner): as the sequence (O75909 whole entry partner) above

CDK12 [3] = target: T1, CDK12; test: Western blot degradation of CDK12 (Example 2); conditions: DC50 classes; cell line not given; read-out: CDK12 degradation Activity
Outline: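 Leukemia lines KASUMI-1, MV4-11, Jurkat, plus MDA-MB-231 for a concentration series, treated at 0.01–3 μM for 3–48 h at 37 °C against DMSO control. Lysates in 4% SDS; CDK12/13 band intensity normalized to β-Actin or GAPDH to give degradation rate.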

CDK13 [4] = target: T2, CDK13; test: Western blot degradation of CDK13 (Example 2); conditions: DC50 classes; cell line not given; read-out: CDK13 degradation Activity

`CC(=O)N(c1ccc(-c2ccc(N3CCN(c4cc(C(C(=O)N5C[C@H](O)C[C@H]5C(=O)N[C@@H](C)c5ccc(-c6scnc6C)cc5)C(C)C)on4)CC3)nc2)cc1)[C@H]1CC[C@@H](Nc2ncc3ccccc3n2)CC1` (single isomer, unassigned) [Formula 155] showed a DC50 (CDK12 [1]) of less than 100 nM and a DC50 (CDK13 [2]) of less than 100 nM.

For `CC(=O)N(c1ccc(-c2cnc(N3CCN(c4cc(C(C(=O)N5C[C@H](O)C[C@H]5C(=O)N[C@@H](C)c5ccc(-c6scnc6C)cc5)C(C)C)on4)CC3)nc2)cc1)[C@H]1CC[C@@H](Nc2ncc3ccccc3n2)CC1` (single isomer, unassigned) [Formula 156], the DC50 (CDK12 [1]) was less than 100 nM and the DC50 (CDK13 [2]) was less than 100 nM.

`CC(=O)N(c1ccc(-c2cnn(CC3CN(CC(=O)N[C@H](C(=O)N4C[C@H](O)C[C@H]4C(=O)N[C@@H](C)c4ccc(-c5scnc5C)cc4)C(C)(C)C)C3)c2)cc1)[C@H]1CC[C@H](Nc2ncc3ccccc3n2)CC1` (stereo in doubt) [Formula 140, (2S,4R)-1-((R)-3,3-dimethyl-2-(2-(3-((4-(4-(N-((1R,4R)-4-(quinazolin-2-ylamino)cyclohexyl)acetamido)phenyl)-1H-pyrazol-1-yl)methyl)azetidin-1-yl)acetamido)butanoyl)-4-hydroxy-N—((R)-1-(4-(4-methylthiazol-5-yl)phenyl)ethyl)pyrrolidine-2-carboxamide] gave a DC50 (CDK12 [1]) of 1000 to 3000 nM and a DC50 (CDK13 [2]) of 500 to 1000 nM.

With `Cc1ncsc1-c1ccc([C@H](C)NC(=O)[C@@H]2C[C@@H](O)CN2C(=O)[C@@H](NC(=O)CN2CCN(c3ncc(-c4ccc(N(C(=O)NCc5ccccc5)[C@H]5CC[C@H](Nc6ccc(C#N)cn6)CC5)cc4)cn3)CC2)C(C)(C)C)cc1` [Formula 80] the DC50 (CDK12 [3]) was less than 100 nM and the DC50 (CDK13 [4]) was less than 100 nM.

For `Cc1ncsc1-c1ccc([C@H](C)NC(=O)[C@@H]2C[C@@H](O)CN2C(=O)[C@@H](NC(=O)CN2CCN(c3ncc(-c4ccc(N(C(=O)NCc5ccccc5)[C@H]5CC[C@H](Nc6ccc(C#N)cn6)CC5)cc4)cn3)CC2)C(C)(C)C)cc1` [Formula 82], the DC50 (CDK12 [3]) was less than 100 nM and the DC50 (CDK13 [4]) was less than 100 nM.

`Cc1ncsc1-c1ccc([C@H](C)NC(=O)[C@@H]2C[C@@H](O)CN2C(=O)[C@@H](NC(=O)CN2CCN(c3ncc(-c4ccc(N(C(=O)NCc5ccccc5)[C@H]5CC[C@H](Nc6ccc(C#N)cn6)CC5)cc4)cn3)CC2)C(C)(C)C)cc1` [Formula 83] showed a DC50 (CDK12 [3]) of less than 100 nM and a DC50 (CDK13 [4]) of less than 100 nM.

With `Cc1ncsc1-c1ccc([C@H](C)NC(=O)[C@@H]2C[C@@H](O)CN2C(=O)[C@@H](NC(=O)CN2CCN(c3ncc(-c4ccc(N(C(=O)NCc5ccccc5)[C@H]5CC[C@H](Nc6ccc(C#N)cn6)CC5)cc4)cn3)CC2)C(C)(C)C)cc1` [Formula 84] the DC50 (CDK12 [3]) was less than 100 nM and the DC50 (CDK13 [4]) was less than 100 nM.

With `Cc1ncsc1-c1ccc([C@H](C)NC(=O)[C@@H]2C[C@@H](O)CN2C(=O)[C@@H](NC(=O)CN2CCN(c3ncc(-c4ccc(N(C(=O)NCc5ccccc5)[C@H]5CC[C@H](Nc6ccc(C#N)cn6)CC5)cc4)cn3)CC2)C(C)(C)C)cc1` [Formula 85] the DC50 (CDK12 [3]) was less than 100 nM and the DC50 (CDK13 [4]) was less than 100 nM.

For `Cc1ncsc1-c1ccc([C@H](C)NC(=O)[C@@H]2C[C@@H](O)CN2C(=O)[C@@H](NC(=O)CN2CCN(c3ncc(-c4ccc(N(C(=O)NCc5ccccc5)[C@H]5CC[C@H](Nc6ccc(C#N)cn6)CC5)cc4)cn3)CC2)C(C)(C)C)cc1` [Formula 86], the DC50 (CDK12 [3]) was less than 100 nM and the DC50 (CDK13 [4]) was less than 100 nM.

`CC(=O)N(c1ccc(N2CCC3(CC2)CCN(c2ccc4c(c2)C(=O)N(C2CCC(=O)NC2=O)C4=O)C3)cc1)[C@H]1CC[C@H](Nc2ncc3ccccc3n2)CC1` (stereo partly drawn) [Formula 119, N-(4-(2-(2-(2,6-dioxopiperidin-3-yl)-1,3-dioxoisoindolin-5-yl)-2,8-diazaspiro[4.5]decan-8-yl)phenyl)-N-((1R,4R)-4-(quinazolin-2-ylamino)cyclohexyl)acetamide] gave a DC50 (CDK12 [1]) of 1000 to 3000 nM.
